This is an account of results in patent publication US7338958B2, “Sulfoximine-substituted pyrimidines as CDK-and/or VEGF inhibitors, their production and use as pharmaceutical agents” (Schering AG, priority 2003, dated 2008).

pIC50: −log10 of the molar value.

The test system of series [1] is MCF7, hormone-independent human breast cancer cells. The series is described as follows: Proliferation assay, MCF7. In kind it is cell-based. The following applies: MCF7, 96 h, 4 days incubation, crystal violet. In outline:
(§1)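 Cells seeded ~5000/well, treated after 24 h with 0.01-30 μM compound (0.5% DMSO) for 4 days. Glutaraldehyde-fixed cells stained with crystal violet, absorbance at 595 nm; growth expressed as percent, normalized to zero-point plate (0%) and untreated cells (100%).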

The target in another series is T1, CDK2/CycE (Homo sapiens, UniProt P24941).
T1 construct: GST; purchased ProQinase GmbH, Freiburg; host or cells: baculovirus-infected insect cells (Sf9)
The experiment in a line: CDK2/CycE Kinase Assay. In kind it is biochemical. The following applies: histone IIIS substrate, 33P-ATP, 15 minutes at 22° C. In short, it runs like this:
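Recombinant GST-tagged CDK2/CycE from Sf9 cells (50 ng/point) was incubated with compound (0.01-100 μM) for 15 min at 22° C, pH 8.0, with 0.5 μM ATP plus ^33P-γ-ATP and histone IIIS as substrate, in 12.5% DMSO. Incorporated ^33P was counted after filter binding and washing.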

In a further series the target is T2, CDK1/CycB (Homo sapiens, UniProt P06493).
T2 construct: GST; purchased ProQinase GmbH, Freiburg; host or cells: baculovirus-infected insect cells (Sf9)
T2 sequence (P06493 whole entry): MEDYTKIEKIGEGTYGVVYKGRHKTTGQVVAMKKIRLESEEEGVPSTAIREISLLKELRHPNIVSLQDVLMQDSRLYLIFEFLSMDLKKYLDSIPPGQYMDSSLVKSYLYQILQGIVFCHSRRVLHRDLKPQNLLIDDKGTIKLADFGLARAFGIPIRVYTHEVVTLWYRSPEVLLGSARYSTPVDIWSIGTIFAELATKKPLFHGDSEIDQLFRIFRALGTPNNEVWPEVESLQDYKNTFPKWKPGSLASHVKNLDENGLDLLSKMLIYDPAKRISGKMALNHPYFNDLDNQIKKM
T2 sequence (P14635 whole entry partner): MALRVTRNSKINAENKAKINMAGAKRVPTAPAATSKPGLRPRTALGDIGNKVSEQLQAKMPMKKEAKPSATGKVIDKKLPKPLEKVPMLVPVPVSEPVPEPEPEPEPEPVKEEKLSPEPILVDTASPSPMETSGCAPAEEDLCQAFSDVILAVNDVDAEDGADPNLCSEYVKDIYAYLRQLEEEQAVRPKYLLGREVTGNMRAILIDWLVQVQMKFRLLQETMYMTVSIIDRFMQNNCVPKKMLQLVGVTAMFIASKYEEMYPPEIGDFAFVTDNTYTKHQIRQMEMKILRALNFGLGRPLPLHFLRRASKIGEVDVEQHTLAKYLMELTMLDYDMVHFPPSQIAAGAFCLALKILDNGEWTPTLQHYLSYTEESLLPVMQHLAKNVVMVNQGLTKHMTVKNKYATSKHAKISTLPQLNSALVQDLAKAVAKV
The experiment in a line: CDK1/CycB Kinase Assay. The following applies: histone IIIS substrate, 33P-ATP, 15 minutes at 22° C. In kind it is biochemical.

The target of series [2] is T3, VEGF receptor tyrosine kinase-2 (Homo sapiens, UniProt P35968).
T3 construct: GST; made in house; host or cells: baculovirus-infected insect cells (Sf9)
T3 sequence (P35968 20-1356): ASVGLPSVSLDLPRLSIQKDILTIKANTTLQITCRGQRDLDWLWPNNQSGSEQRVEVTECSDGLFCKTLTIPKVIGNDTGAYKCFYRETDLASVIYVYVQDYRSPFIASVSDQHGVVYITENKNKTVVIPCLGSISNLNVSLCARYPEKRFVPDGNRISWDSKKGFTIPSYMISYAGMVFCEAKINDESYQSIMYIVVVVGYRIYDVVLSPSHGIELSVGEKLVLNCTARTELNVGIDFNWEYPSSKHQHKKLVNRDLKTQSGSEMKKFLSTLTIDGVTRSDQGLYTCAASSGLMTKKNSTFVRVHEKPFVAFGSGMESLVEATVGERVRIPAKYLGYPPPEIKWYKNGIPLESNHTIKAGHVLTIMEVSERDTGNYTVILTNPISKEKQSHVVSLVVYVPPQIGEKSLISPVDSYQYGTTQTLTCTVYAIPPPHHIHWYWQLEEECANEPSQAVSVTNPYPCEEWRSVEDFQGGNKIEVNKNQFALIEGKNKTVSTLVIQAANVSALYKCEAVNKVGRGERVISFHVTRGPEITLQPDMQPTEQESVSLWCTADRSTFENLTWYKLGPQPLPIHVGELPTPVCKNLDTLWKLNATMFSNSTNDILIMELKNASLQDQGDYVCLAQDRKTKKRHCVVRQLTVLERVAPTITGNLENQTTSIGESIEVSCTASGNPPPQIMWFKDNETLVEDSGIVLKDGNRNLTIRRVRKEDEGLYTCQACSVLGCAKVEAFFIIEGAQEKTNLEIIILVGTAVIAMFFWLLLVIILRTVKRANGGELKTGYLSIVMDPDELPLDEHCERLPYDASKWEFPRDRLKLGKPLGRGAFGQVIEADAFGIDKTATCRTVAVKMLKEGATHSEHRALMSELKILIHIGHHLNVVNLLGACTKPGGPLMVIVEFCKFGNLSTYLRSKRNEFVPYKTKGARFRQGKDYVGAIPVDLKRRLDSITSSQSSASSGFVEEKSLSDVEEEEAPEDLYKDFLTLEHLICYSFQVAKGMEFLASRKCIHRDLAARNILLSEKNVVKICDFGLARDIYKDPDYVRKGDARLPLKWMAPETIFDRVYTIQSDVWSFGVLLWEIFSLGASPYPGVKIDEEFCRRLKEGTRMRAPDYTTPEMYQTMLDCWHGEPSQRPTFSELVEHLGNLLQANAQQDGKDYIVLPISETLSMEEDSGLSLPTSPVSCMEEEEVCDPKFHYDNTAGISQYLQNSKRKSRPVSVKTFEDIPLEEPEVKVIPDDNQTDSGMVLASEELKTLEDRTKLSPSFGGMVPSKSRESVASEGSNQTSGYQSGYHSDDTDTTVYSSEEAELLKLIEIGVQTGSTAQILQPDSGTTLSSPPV
The experiment in a line: VEGF Receptor-2 Kinase Assay. The following applies: poly-(Glu4Tyr) substrate, 33P-ATP, 10 minutes at 22° C.; read-out: VEGF-R2 IC50. In kind it is biochemical.

The subject of series [3] is NCI-H460, human non-small-cell lung cancer cells. The series is described as follows: Proliferation assay, H460. In kind it is cell-based. The following applies: NCI-H460, 96 h, 4 days incubation, crystal violet. In short, it runs like this:
as §1

The test system of series [4] is DU 145, hormone-independent human prostate cancer cells. The series is described as follows: Proliferation assay, DU145. In kind it is cell-based. The following applies: DU-145, 96 h, 4 days incubation, crystal violet. In outline: as §1
A further series relates to MaTu-ADR. The series is described as follows: Proliferation assay, MaTu-ADR. The format is cell-based. The following applies: Homo sapiens, 96 h, MaTu-ADR cells, 4 days incubation, crystal violet. In short, it runs like this: as §1

For orientation: melting point means the temperature, or range, at which the solid turns liquid. Regarding `C[C@@H](Nc1nc(Nc2ccc(S(=O)(=NS(=O)(=O)CC[Si](C)(C)C)C3CCCC3)cc2)ncc1Br)C(C)(C)O` (mixture of isomers) [Example 1.10, (RS)-S-[4-({5-bromo-4-[(R)-(2-hydroxy-1,2-dimethylpropyl)amino]pyrimidin-2-yl}amino)phenyl]-S-cyclopentyl-N-[2-(trimethylsilyl)ethylsulfonyl]sulfoximide], the melting point is 200 to 201 °C.
Same read-out and setting: to `C[C@@H](Nc1nc(Nc2ccc(S(=N)(=O)C3CCCC3)cc2)ncc1Br)C(C)(C)O` (mixture of isomers) [Example 1.11, (RS)-S-[4-({5-bromo-4-[(R)-(2-hydroxy-1,2-dimethylpropyl)amino]pyrimidin-2-yl}amino)phenyl]-S-cyclopentylsulfoximide] belongs 194 to 196 °C; to `C[C@H](CO)Nc1nc(Nc2ccc(S(C)(=O)=NS(=O)(=O)CC[Si](C)(C)C)cc2)ncc1Br` (mixture of isomers) [Example 2.1, (RS)-S-[4-({5-bromo-4-[(R)-(2-hydroxy-1-methylethyl)amino]pyrimidin-2-yl}amino)phenyl]-S-methyl-N-[2-(trimethylsilyl)ethylsulfonyl]sulfoximide], 194 to 197 °C.
Usually pIC50 stands for −log10 of the IC50, conventionally taken in molar units. The compound `CCC(CO)Sc1nc(Nc2ccc(S(C)(=N)=O)cc2)ncc1Br` (racemic) [Example 3.0, (RS)-S-[4-({5-bromo-4-[(RS)-(1-hydroxymethyl-propyl)sulfanyl]pyrimidin-2-yl}amino)phenyl]-S-methyl sulfoximide] showed a melting point of 175 to 180 °C. Moreover, the pIC50 in series [1] is 6.30. Besides, the pIC50 on CDK2/CycE is 7.80. For the same compound, on CDK1/CycB, the pIC50 was 7.31. Besides, the pIC50 in series [2] is 6.77.
`CCC(C)Sc1nc(Nc2ccc(S(C)(=N)=O)cc2)ncc1Br` (racemic) [Example 3.1, (RS)-S-[4-({5-bromo-4-[(RS)-(1-methyl-propyl)sulfanyl]pyrimidin-2-yl}amino)phenyl]-S-methyl sulfoximide]: the melting point was in the range of 175 to 183 °C. Further, in series [1], the negative logarithm of the IC50 (pIC50) is 6.40. For the same compound, the negative-log IC50 (pIC50) on CDK2/CycE is 7.48. Also, the pIC50 on CDK1/CycB was 7.01. In series [2], the negative-log IC50 (pIC50) is 6.92.
`CC(Sc1nc(Nc2ccc(S(C)(=N)=O)cc2)ncc1Br)C(C)(C)O` (racemic) [Example 3.7, (RS)-S-[4-({5-bromo-4-[(RS)-(2-hydroxy-1,2-dimethylpropyl)sulfanyl]pyrimidin-2-yl}amino)phenyl]-S-methyl sulfoximide] showed a melting point of 201 to 202 °C. The negative logarithm of the IC50 (pIC50) in series [1] is 7.00. Further, the pIC50 in series [3] was over 7.00. In series [4], this compound had a negative-log IC50 (pIC50) of over 7.00. Moreover, the pIC50 in the series with MaTu-ADR is over 7.00. The compound also had a pIC50 against CDK1/CycB of 7.72.
For `CCC(Sc1nc(Nc2ccc(S(C)(=N)=O)cc2)ncc1Br)C(C)(C)O` (racemic) [Example 3.8, (RS)-S-[4-({5-bromo-4-[(RS)-(1-ethyl-2-hydroxy-2-methylpropyl)sulfanyl]pyrimidin-2-yl}amino)phenyl]-S-methyl sulfoximide], the melting point was 218 °C (dec.). In series [1], the negative-log IC50 (pIC50) was 6.40. Besides, the negative-log IC50 (pIC50) in series [3] is 6.52. Besides, the negative logarithm of the IC50 (pIC50) in series [4] is 6.52. Also, the pIC50 in the series on MaTu-ADR is 6.72. Besides, the pIC50 at CDK2/CycE is 7.57. Further, the pIC50 in series [2] is under 6.00.
`CC(CO)Sc1nc(Nc2ccc(S(C)(=N)=O)cc2)ncc1Br` (racemic) [Example 3.10, (RS)-S-[4-({5-bromo-4-[(RS)-(2-hydroxy-1-methyl-ethyl)sulfanyl]pyrimidin-2-yl}amino)phenyl]-S-methyl sulfoximide] had a melting point of 218 to 220 °C. In series [1], the negative logarithm of the IC50 (pIC50) is 6.40. The compound further gave a pIC50 against CDK2/CycE of 8.40. On CDK1/CycB, this compound gave a negative logarithm of the IC50 (pIC50) of 7.74.
